Experimental data reported in patent US4603016A, “Cryogenic brine separation of water and isocyanates” (E. I. Du Pont de Nemours and Company, priority 1985, dated 1986).

Assay: storage stability of isolated MIC preparations (GC determination of MIC content immediately following collection and after storage for two weeks)
Format: physicochemical
Settings: for % MIC After Storage / % MIC As Isolated: GC; for % MIC After Storage: after storage for two weeks; for % MIC As Isolated: immediately following collection
Procedure: This example illustrates the stability of MIC preparations isolated by the process of the present invention. The procedure described in Example 1 was substantially repeated at MMF liquid feed rates of 2 mL/min. As described in Example 3, samples of the product of the brine condenser were collected for one hour periods, weighed, and yields estimated. Each sample was then analyzed by GC to determine MIC content immediately following collection, and again after storage for two weeks.

CN=C=O [MIC, methyl isocyanate]
% MIC After Storage (1st hr sample): 92.3%
% MIC As Isolated (1st hr sample): > 98%
% MIC After Storage (2nd hr sample): 92.3%
% MIC As Isolated (2nd hr sample): > 98%
% MIC After Storage (3rd hr sample): 93.1%
% MIC As Isolated (3rd hr sample): > 98%
% MIC After Storage (4th hr sample): 95.0%
% MIC As Isolated (4th hr sample): > 98%
% MIC After Storage (5th hr sample): 95.4%
% MIC As Isolated (5th hr sample): > 98%
degradation of product MIC during storage (storage for two weeks, all samples): minimal degradation
